# pIC50: −log10 of the molar value.
# Target: T1, human recombinant full-length fatty acid synthase (FASN) (Homo sapiens, UniProt P49327)
# T1 construct: 40 nM human recombinant full-length fatty acid synthase (produced in-house in SF9 cells); made in house; host or cells: SF9 insect cells
# Assay: Biochemical activity testing of human fatty acid synthase FASN (NADPH fluorescence intensity enzyme assay)
# Details: human recombinant FASN, enzyme assay
# Method in brief: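 Recombinant full-length human FASN from SF9 cells, preincubated with compound (10 concentrations, top 30 μM final, 1% DMSO) and NADPH ≥15 min at room temperature, pH 7.0. Acetyl-CoA and malonyl-CoA added; NADPH fluorescence (340/460 nm) read before and after 30 min. IC50 from signal difference, normalised to uninhibited reaction and GSK837149A zero control.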
# T1 sequence (P49327 whole entry): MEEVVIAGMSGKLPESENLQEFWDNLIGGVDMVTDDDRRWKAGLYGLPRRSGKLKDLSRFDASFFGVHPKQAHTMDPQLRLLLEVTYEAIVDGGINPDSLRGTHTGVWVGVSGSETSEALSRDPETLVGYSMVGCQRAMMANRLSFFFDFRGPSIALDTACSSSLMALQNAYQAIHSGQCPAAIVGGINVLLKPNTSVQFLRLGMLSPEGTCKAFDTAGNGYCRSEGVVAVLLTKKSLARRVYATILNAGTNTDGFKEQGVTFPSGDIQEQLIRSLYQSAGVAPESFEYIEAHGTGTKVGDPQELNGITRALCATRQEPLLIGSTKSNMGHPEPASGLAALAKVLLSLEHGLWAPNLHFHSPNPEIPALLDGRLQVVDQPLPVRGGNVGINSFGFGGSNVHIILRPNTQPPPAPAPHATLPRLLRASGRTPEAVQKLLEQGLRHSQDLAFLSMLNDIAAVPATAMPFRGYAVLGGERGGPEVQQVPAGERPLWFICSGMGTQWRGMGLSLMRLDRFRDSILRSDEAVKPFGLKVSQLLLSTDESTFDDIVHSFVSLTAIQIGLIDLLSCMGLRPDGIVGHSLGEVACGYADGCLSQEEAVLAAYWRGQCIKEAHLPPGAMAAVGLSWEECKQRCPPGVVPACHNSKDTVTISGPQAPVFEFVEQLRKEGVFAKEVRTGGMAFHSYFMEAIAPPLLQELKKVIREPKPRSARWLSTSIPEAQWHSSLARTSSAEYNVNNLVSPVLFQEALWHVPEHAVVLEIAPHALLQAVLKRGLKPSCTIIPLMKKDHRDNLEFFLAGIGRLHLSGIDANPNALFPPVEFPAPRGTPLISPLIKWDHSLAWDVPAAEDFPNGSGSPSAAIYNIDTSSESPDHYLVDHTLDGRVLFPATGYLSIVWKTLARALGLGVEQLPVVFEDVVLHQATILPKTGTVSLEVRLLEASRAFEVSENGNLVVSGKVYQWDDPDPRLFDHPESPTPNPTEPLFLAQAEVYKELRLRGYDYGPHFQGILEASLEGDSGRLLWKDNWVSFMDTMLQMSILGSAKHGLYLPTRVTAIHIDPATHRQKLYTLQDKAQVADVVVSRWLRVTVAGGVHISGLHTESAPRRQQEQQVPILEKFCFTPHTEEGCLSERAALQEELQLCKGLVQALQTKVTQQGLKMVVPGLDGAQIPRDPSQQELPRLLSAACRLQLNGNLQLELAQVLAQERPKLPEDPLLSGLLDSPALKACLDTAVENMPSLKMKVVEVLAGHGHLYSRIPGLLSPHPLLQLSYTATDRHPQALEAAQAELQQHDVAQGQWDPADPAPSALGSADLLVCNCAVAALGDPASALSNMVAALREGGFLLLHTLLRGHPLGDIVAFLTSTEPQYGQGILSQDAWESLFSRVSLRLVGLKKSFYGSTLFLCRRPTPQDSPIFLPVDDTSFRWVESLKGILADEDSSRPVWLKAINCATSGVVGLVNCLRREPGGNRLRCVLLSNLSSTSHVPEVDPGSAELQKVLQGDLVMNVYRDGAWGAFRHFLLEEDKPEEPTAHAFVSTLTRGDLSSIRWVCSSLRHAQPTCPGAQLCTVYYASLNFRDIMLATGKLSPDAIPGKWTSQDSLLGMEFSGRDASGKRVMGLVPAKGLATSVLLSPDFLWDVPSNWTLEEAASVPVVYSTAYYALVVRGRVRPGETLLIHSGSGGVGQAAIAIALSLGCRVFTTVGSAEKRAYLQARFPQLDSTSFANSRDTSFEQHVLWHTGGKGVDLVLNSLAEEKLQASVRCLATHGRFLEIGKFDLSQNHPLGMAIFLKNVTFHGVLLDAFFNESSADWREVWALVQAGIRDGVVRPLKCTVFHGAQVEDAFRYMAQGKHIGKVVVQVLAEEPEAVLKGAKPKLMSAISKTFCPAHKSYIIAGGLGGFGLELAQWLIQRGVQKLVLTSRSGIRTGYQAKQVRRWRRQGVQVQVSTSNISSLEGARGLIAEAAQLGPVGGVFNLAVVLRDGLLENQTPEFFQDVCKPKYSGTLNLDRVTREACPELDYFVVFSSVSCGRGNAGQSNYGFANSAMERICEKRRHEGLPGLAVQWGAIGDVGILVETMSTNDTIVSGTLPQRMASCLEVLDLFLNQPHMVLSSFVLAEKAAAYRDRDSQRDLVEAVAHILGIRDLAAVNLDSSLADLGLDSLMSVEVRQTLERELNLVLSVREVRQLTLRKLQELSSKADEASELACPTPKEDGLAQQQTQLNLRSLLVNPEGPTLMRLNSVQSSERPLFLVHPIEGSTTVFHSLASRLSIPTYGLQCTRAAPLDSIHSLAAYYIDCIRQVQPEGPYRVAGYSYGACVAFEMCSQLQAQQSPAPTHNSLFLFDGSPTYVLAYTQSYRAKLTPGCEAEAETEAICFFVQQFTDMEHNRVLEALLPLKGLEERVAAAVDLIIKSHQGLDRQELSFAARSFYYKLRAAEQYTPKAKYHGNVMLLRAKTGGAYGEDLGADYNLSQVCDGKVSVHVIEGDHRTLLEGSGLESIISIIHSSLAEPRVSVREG
row,Compound,pIC50
1,"CCC(=O)N[C@H]1CC[C@@H](n2nncc2-c2ccc(-c3ccc4[nH]ccc4c3F)c(F)c2)C1 [Compound A119, N-((1S,3R)-3-{5-[3-Fluoro-4-(4-fluoro-1H-indol-5-yl)-phenyl]-[1,2,3]triazol-1-yl}-cyclopentyl)-propionamide]",> 6.52
2,"CCC(=O)N[C@H]1CC[C@@H](n2nncc2-c2ccc(-c3cc4cc[nH]c4cc3F)c(F)c2)C1 [Compound A120, N-((1S,3R)-3-{5-[3-Fluoro-4-(6-fluoro-1H-indol-5-yl)-phenyl]-[1,2,3]triazol-1-yl}-cyclopentyl)-propionamide]",> 6.52
3,"CCC(=O)N[C@H]1CC[C@@H](n2nncc2-c2ccc(-c3ccc4cc[nH]c4c3)nc2)C1 [Compound A121, N-((1S,3R)-3-{5-[6-(1H-Indol-6-yl)-pyridin-3-yl]-[1,2,3]triazol-1-yl}-cyclopentyl)-propionamide]",> 6.52
4,"CCC(=O)N[C@H]1CC[C@@H](n2nncc2-c2ccc(-c3ccc4ccn(C)c4c3)nc2)C1 [Compound A122, N-((1S,3R)-3-{5-[6-(1-Methyl-1H-indol-6-yl)-pyridin-3-yl]-[1,2,3]triazol-1-yl}-cyclopentyl)-propionamide]",5.52 to 6.52
5,"CCC(=O)N[C@H]1CC[C@@H](n2nncc2-c2ccc(-c3cccc4[nH]ncc34)nc2)C1 [Compound A123, N-((1S,3R)-3-{5-[6-(1H-Indazol-4-yl)-pyridin-3-yl]-[1,2,3]triazol-1-yl}-cyclopentyl)-propionamide]",5.52 to 6.52

# From patent publication US9718785B2, “1,3-Disubstituted cyclopentane derivatives” (MERCK PATENT GMBH, priority 2013, dated 2017)
